Source: article PMC12406203 (Journal of Medicinal Chemistry, 2025)

Experiments:
Assay in all cases: KINOMEscan
Type in all cases: binding
PCTK1 = target: T1, PCTK1 (Homo sapiens, UniProt Q00536)
T1 construct: purchased Eurofins DiscoverX, LLC; host or cells: E. coli BL21-derived host (T7 phage) or HEK-293

FGFR2 = target: T2, FGFR2 (Homo sapiens, UniProt P21802)
T2 construct: purchased Eurofins DiscoverX, LLC; host or cells: E. coli (T7 phage) or HEK-293

PRKCE = target: T3, PRKCE (Homo sapiens, UniProt Q02156)
T3 construct: purchased Eurofins DiscoverX, LLC; host or cells: E. coli BL21-derived host (T7 phage) or HEK-293
T3 sequence (Q02156 1-737): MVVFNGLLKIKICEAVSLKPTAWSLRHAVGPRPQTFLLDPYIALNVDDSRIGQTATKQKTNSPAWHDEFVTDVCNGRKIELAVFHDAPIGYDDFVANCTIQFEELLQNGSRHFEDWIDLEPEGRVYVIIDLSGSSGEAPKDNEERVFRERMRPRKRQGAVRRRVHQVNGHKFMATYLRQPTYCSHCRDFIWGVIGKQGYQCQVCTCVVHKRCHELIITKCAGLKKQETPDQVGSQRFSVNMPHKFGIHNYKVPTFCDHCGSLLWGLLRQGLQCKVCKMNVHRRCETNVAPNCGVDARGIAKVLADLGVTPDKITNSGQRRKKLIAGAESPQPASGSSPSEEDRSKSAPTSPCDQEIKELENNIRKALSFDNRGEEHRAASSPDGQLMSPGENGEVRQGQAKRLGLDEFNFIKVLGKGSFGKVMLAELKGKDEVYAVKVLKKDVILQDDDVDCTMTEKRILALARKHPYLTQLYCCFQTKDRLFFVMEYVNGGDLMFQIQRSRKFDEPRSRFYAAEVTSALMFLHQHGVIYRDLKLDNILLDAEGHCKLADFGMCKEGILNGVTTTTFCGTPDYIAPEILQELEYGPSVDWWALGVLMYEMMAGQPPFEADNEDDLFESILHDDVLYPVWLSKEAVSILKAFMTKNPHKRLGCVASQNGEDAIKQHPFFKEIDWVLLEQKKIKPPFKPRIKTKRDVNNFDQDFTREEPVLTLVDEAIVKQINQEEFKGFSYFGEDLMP

RIOK2 = target: T4, RIOK2 (Homo sapiens, UniProt Q9BVS4)
T4 construct: purchased Eurofins DiscoverX, LLC; host or cells: E. coli BL21-derived host (T7 phage) or HEK-293
T4 sequence (Q9BVS4 whole entry): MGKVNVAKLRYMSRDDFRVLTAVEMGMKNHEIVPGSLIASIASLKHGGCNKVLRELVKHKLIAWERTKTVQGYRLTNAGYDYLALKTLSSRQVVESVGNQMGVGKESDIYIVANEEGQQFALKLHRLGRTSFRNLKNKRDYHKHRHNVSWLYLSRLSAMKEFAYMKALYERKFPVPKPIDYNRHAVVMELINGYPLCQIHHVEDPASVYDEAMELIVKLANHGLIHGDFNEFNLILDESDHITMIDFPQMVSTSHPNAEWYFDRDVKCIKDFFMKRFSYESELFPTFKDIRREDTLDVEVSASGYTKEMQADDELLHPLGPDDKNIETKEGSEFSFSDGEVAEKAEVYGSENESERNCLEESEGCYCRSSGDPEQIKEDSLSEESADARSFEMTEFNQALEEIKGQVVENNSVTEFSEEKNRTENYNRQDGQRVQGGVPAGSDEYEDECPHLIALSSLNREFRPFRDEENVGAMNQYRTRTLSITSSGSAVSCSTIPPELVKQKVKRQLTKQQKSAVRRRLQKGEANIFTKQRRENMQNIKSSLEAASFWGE

ADCK3 = target: T5, ADCK3 (Homo sapiens, UniProt Q8NI60)
T5 construct: purchased Eurofins DiscoverX, LLC; host or cells: E. coli BL21-derived (T7 phage) or HEK-293
T5 sequence (Q8NI60 163-647): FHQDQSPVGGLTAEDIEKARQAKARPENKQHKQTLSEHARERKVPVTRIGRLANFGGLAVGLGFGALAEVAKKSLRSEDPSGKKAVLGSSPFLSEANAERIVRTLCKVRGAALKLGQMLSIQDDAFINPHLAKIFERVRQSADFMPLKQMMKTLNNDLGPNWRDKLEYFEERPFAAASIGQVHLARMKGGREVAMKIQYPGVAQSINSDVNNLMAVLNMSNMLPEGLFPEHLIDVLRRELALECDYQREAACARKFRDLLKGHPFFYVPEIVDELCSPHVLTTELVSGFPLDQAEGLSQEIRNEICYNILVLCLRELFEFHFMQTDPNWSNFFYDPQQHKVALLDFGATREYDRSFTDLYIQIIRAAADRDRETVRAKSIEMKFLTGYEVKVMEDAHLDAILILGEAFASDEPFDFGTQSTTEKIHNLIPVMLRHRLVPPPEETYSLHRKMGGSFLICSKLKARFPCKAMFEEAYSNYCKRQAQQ

AXL = target: T6, AXL (Homo sapiens, UniProt P30530)
T6 construct: purchased Eurofins DiscoverX, LLC; host or cells: E. coli BL21-derived (T7 phage) or HEK-293
T6 sequence (P30530 26-894): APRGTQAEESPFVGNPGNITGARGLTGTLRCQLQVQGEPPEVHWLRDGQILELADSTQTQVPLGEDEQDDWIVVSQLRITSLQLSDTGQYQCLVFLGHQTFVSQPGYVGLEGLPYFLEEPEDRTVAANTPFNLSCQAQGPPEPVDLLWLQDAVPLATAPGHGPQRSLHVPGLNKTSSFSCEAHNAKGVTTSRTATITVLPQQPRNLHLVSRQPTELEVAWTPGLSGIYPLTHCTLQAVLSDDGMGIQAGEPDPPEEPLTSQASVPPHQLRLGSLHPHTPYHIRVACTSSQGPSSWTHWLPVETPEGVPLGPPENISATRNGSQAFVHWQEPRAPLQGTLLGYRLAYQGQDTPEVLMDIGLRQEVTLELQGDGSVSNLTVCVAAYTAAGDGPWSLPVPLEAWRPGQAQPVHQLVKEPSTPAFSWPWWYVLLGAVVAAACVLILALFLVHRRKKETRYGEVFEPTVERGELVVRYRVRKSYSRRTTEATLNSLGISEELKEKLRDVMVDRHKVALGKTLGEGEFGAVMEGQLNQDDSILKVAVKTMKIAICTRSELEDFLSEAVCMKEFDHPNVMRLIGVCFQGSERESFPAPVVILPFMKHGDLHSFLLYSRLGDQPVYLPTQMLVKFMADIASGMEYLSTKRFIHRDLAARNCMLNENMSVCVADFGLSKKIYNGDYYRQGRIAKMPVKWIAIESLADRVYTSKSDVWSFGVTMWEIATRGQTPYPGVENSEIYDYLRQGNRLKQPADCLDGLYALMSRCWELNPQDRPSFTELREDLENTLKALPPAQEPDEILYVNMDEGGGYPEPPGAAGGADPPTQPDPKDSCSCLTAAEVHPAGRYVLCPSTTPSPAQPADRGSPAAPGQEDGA

T1 sequence (Q00536 whole entry): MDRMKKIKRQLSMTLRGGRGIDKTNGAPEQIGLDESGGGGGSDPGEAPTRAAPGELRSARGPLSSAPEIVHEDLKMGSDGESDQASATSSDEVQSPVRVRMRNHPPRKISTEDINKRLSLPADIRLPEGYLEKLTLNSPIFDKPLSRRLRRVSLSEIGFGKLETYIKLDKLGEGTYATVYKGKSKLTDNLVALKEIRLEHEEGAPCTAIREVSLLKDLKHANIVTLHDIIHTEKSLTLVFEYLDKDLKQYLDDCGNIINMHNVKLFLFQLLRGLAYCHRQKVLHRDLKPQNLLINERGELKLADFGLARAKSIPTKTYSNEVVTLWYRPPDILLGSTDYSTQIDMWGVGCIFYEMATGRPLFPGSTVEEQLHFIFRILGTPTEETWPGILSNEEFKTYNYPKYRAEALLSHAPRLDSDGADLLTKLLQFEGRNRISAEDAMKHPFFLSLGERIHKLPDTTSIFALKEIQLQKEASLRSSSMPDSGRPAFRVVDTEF
T2 sequence (P21802 22-821): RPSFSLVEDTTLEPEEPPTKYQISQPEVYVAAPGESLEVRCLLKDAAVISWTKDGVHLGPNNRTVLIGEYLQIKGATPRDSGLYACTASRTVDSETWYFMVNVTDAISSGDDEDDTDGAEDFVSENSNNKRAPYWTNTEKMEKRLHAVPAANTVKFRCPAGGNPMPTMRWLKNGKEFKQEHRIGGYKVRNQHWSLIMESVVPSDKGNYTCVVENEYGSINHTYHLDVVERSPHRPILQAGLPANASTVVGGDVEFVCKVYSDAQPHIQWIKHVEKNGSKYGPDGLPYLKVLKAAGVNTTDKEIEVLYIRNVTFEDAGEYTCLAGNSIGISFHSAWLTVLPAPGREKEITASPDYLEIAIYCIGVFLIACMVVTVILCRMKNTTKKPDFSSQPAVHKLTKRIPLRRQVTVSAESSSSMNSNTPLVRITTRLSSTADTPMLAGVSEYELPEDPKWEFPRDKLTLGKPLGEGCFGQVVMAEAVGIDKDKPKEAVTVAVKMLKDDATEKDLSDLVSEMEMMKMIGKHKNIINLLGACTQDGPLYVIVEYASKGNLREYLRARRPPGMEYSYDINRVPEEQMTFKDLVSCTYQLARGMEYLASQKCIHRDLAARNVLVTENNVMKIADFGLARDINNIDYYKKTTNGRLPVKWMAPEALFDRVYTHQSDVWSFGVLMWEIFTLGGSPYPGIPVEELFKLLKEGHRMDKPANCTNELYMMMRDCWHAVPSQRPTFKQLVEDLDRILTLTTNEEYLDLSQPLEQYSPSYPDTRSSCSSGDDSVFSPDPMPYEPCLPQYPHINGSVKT

SMILES	RA @ 1000nM (PCTK1)	RA @ 10000nM (PCTK1)	RA @ 1000nM (FGFR2)	RA @ 10000nM (FGFR2)	RA @ 1000nM (PRKCE)	RA @ 10000nM (PRKCE)	RA @ 1000nM (RIOK2)	RA @ 10000nM (RIOK2)	RA @ 1000nM (ADCK3)	RA @ 10000nM (ADCK3)	RA @ 1000nM (AXL)	RA @ 10000nM (AXL)
CC(C)Cn1ncc2cc(Cc3ccc(F)cc3F)c(C(=O)NCCN(C)C)cc21 [Compound 94, 5-(2,4-Difluorobenzyl)-N-(2-(dimethylamino)ethyl)-1-isobutyl-1H-indazole-6-carboxamide]	96%	92%	95%	100%	80%	80%	85%	92%	100%	100%	97%	89%
CN(C)CCNC(=O)c1cc2c(cnn2CC2CCCCC2)cc1Cc1ccc(F)cc1F [Compound 95, 1-(Cyclohexylmethyl)-5-(2,4-difluorobenzyl)-N-(2-(dimethylamino)ethyl)-1H-indazole-6-carboxamide]	87%	79%	100%	100%	79%	76%	88%	81%	100%	81%	84%	83%
